# Key:
# Format in all cases: in vivo, human
# [1] = Relative bioavailability and food effect study, single oral dose of 450 mg, plasma PK of Compound 1
# Excerpt: (§1) Pharmacokinetic samples were obtained and evaluated in all subjects.
# [2] = ADME study: PK of total radioactivity in blood and plasma (LSC); parameters: AUC (last), blood radioactivity / AUC (last), plasma radioactivity / AUC (inf), blood radioactivity: concentration or dose not given beside the values
# Experimental: (§2) Six healthy male subjects of aged 18 to 55 years (inclusive) were included in this study.
# The study consisted of a 28-day screening period (including baseline period of 1 day) and 12 days of treatment period. The study design is depicted in FIG. 10.
# (§3) All treatment administrations (Day 1 to Day 12) occurred approximately 30 minutes following consumption of a standardized meal. Treatments were administered with ˜240 mL water as 4×100 mg hard gelatin capsules. The radioactive release criteria was met and all the subjects were released from the study site on Day 14 afternoon.
# (§4) The PK blood sample collection schedule was appropriate to characterize the PK of Compound 1 and any circulating major metabolites. The urine and feces collection schedule was set up adequately to ensure complete excretion of radioactivity. Due to the non-linear PK of Compound 1, the study was conducted at steady state.
# (§5) Subjects who met the eligibility criteria were admitted to the study site approximately 24 hours prior to dosing for baseline evaluations. […] Safety assessments included physical examinations, electrocardiograms (ECGs), vital signs, standard clinical laboratory evaluations (hematology, blood chemistry, and urinalysis), AE and serious adverse event (SAE) monitoring.
# Blood, plasma, urine, and feces samples were obtained and evaluated in all subjects. […] If the co-efficient of variation of replicate radioactivity measurements was >20%, the sample was re-homogenized and/or reanalyzed.
# Single-dose blood and plasma PK parameters (Cmax, Tmax, AUClast and AUCinf), for total radioactivity were derived from plasma and blood concentration versus sampling time data. PK parameters were determined using non-compartmental method(s) with Phoenix WinNonLin (Version 6.4) for total radioactivity.
# [3] = ADME study: plasma PK of Compound 1 at steady state (LC-MS/MS)
# Experimental: as §2
# All treatment administrations (Day 1 to Day 12) occurred approximately 30 minutes following consumption of a standardized meal. Treatments were administered with ˜240 mL water as 4×100 mg hard gelatin capsules.
# as §1
# The PK parameters were based on the actual recorded sampling times and non-compartmental method(s) with Phoenix WinNonLin (Version 6.4). The terminal rate constant (λz) was determined from automated (WinNonlin algorithm) linear regression of at least the last three points with non-zero concentrations in the terminal phase of the log-transformed concentration-time profile.
# [4] = ADME study: metabolite pattern analysis in plasma
# Experimental: as §2, §3
# (§6) Profiles of radioactive metabolites in urine and feces pools representing more than 90% of total radioactivity in the collected excreta of individual subjects were specified as dose proportion (%) per metabolite.
# Pharmacokinetic samples were obtained and evaluated in all subjects. Compound 1 was determined in plasma by a validated liquid chromatography with tandem mass spectrometry (LC-MS/MS) method using electrospray ionization. A non-validated method was used to analyze metabolites of Compound 1.
# [5] = ADME study: excretion/mass balance of radioactivity in urine and feces
# Experimental: as §2, §3, §4
# [14C]-radioactivity data, which was based on LSC analyses, for excreta was used to calculate percentage of dose excreted via urine or feces as well as a total percent of dose recovered.
# as §6
# [6] = ADME study: safety and tolerability; conditions: multiple-dose oral 400 mg Compound 1 and single oral 400 mg [14C]Compound 1, healthy subjects
# Experimental: as §2, §3, §5
# [7] = blood, total radioactivity, mean of N = 6
# [8] = single oral 400 mg [14C]Compound 1 at steady state
# [9] = male, human, oral, 400 mg, Day 5, 0-12 hours, steady state, mean of N = 6
# [10] = plasma time pools of N = 6 subjects, metabolite pattern analysis
# [11] = time period 0-216 h, mean, radioactivity after [14C]Compound 1
smiles,measurement,setting,value
"COc1nc(C(=O)NC[C@](C)(O)C(F)(F)F)c(N)cc1C(F)(F)F [Compound 1, (S)-3-amino-6-methoxy-N-(3,3,3-trifluoro-2-hydroxy-2-methylpropyl)-5-(trifluoromethyl)picolinamide]",half-life,"[1]; both sexes, human, plasma, single oral 450 mg, all fasted treatments",~16 h
same,Food effect,"[1]; single 450 mg dose, high-fat meal vs fasted",positive food effect
same,"AUC (inf), blood radioactivity","[2]; blood, total radioactivity, AUCinf = AUClast + AUCt-inf, mean of N = 6",27900 ng-eq·h/mL
same,"Tlast (range), blood radioactivity","[2]; blood, total radioactivity, N = 6",24 to 48 h
same,"AUC (last), blood radioactivity","[2]; blood, total radioactivity, linear trapezoidal rule, mean of N = 6",24700 ng-eq·h/mL
same,"AUC % Extrap, blood radioactivity",[2]; [7],12.2 % of AUCinf
same,"AUC (% of 14C-AUCinf plasma), blood radioactivity",[2]; [7],57.9 % of 14C-AUCinf plasma
same,"Cmax, blood radioactivity","[2]; blood, total radioactivity, oral 400 mg [14C]Compound 1, mean of N = 6",2670 ng-eq/mL
same,"Tlast (range), plasma radioactivity","[2]; plasma, total radioactivity, N = 6",48 to 96 h
same,"AUC (last), plasma radioactivity","[2]; plasma, total radioactivity, linear trapezoidal rule, mean of N = 6",45600 ng-eq·h/mL
same,"AUC % Extrap, plasma radioactivity","[2]; plasma, total radioactivity, mean of N = 6",5.74 % of AUCinf
same,"Cmax, plasma radioactivity","[2]; plasma, total radioactivity, oral 400 mg [14C]Compound 1, mean of N = 6",4280 ng-eq/mL
same,Fraction of total radioactivity in blood confined to the plasma compartment (Fp),[2]; [8],93.3±3.35%
same,"Tlast (range), plasma Compound 1","[3]; Day 5, 0-12 hours",12 h
same,"AUC (% of 14C-AUCinf plasma), plasma Compound 1","[3]; Day 5, 0-12 hours, mean of N = 6",16.6 % of 14C-AUCinf plasma
same,CL/F,"[3]; male, human, oral, 400 mg b.i.d., steady state, CV % 45.1%, read-out: Steady state plasma clearance (CLss/F), mean (converted)",947 mL/min
same,Vd/F,"[3]; male, human, oral, 400 mg b.i.d., steady state, CV % 48.1%, read-out: Apparent volume of distribution (Vz/F), mean",335 L
same,Tmax,"[3]; male, human, oral, 400 mg b.i.d., steady state, Day 5, range 1.0 hour-4.0 hours",4 h
same,AUC(0-t),[3]; [9],8170 ng·h/mL
same,Cmax,[3]; [9],1680 ng/mL
same,AUC(0-inf),"[4]; male, human, oral, 400 mg, plasma time pools of N = 6 subjects, AUCinf = AUClast + AUCt-inf",22.7 µM·h
same,AUC(0-t),"[4]; male, human, oral, 400 mg, plasma time pools of N = 6 subjects, metabolite pattern analysis, linear trapezoidal method, read-out: AUC0-48 h in plasma",22.1 µM·h
same,half-life,"[4]; male, human, oral, 400 mg, plasma time pools of N = 6 subjects, metabolite pattern analysis, read-out: T½ in plasma (converted)",11.2 h
same,Proportion of the plasma 14C-AUC0-48 h,"[4]; metabolite pattern analysis, oral 400 mg [14C]Compound 1 at steady state",18.5%
same,Extent of metabolism,"[4]; oral 400 mg [14C]Compound 1 at steady state, humans",extensively metabolized
same,"AUC0-48 h, percent of total radiolabeled components AUC0-48 h",[4]; [10],18.5%
same,"AUCinf, percent of total radiolabeled components AUCinf",[4]; [10],17.5%
same,"14C-Excretion, Feces",[5]; [11],5.2 % of dose
same,"14C-Excretion, Urine",[5]; [11],92.3 % of dose
same,"14C-Excretion, Total","[5]; time period 0-216 h, urine plus feces, mean, radioactivity after [14C]Compound 1",97.6 % of dose
same,Compound 1 detected in urine,[5]; within 0-96 hours,3.35 % of the dose
same,Safety and tolerability,[6],safe and well tolerated
COc1nc(C(=O)NC[C@](C)(O)C(F)(F)F)c(N)cc1C(F)(F)F [[14C]Compound 1],Time post-dose up to which radioactivity was detected in blood,[2]; [8],up to 48 hours
same,Time post-dose up to which radioactivity was detected in plasma,[2]; [8],≤ 96 h
same,Radioactivity in samples collected after 96 hours post-dose,[5]; after 96 hours post-dose of [14C]Compound 1,less than 3 % of the dose
same,"Excretion of radioactivity, mean","[5]; after 9 days, range 93.4%-99.1%",97.6%
same,Extent of oral absorption,"[5]; oral 400 mg [14C]Compound 1 at steady state, N=6, range 89.7%-97.40%",93.4%
same,Renal excretion of radioactivity (mainly in the form of metabolites),[5]; [8],92.3±4.2 % of the dose
same,Radioactive dose recovered in feces and urine,[5]; within 96 hours,> 95 % of dose
